“Also recorded” adds a separate entry of the source. Peptide text beside a SMILES is read from it.
Experiments:
[1] = approximate class bounds given as e.g.; cited from earlier work
[2] = color stability of red 40 in vitamin fortified beverage exposed to light (Examples 39-40); format: physicochemical; settings: south facing window, exposure to light
Source text: The mixture is returned to the original container and sealed. The sealed bottle is place in a south facing window for 5-6 weeks or until color changes are noted. Excess beverage is stored refrigerated in glass.

[3] = stabilization of citral in citric acid solution with added uncomplexed cyclodextrin (Example 20); format: physicochemical; settings: 0.1 or 0.2 wt % cyclodextrin, 40 or 90 degrees F., 18-48 hours
Method: Citral (natural citral, SAP No. 921565, Lot No. 10000223137, available from Citrus & Allied) was cut in ethanol and diluted in citric acid to obtain a desired flavor level (e.g., 3 mL (1% citral in EtOH) per 2 L 0.6% citric acid; designated as “control” or “control freshly made” in Table 2). […] The raw area counts of various forms of citral or character-impact citrus flavor compounds (i.e., neral, geranial, and citral total, the sum of neral and geranial), and a variety of other compounds, including common citrus flavor off-note chemicals (e.g., carveol, p-cymene or p-cymene-8-ol, p,a-dimethyl styrene, mentha-1,5-dien-8-ol 1, and mentha-a,5-dien-8-ol 2) and chlorocyclohexane internal standard (designated as “CCH int std” in Table 2) were measured for each permutation of the experiment, as shown in Table 2. As used herein, the term “raw area counts” is used to refer to the area under the curve of a corresponding portion of a gas chromatogram when the samples are analyzed using a gas chromatography-mass spectrometry analysis, namely, a PEGASUS II Time-of-flight mass spectrometer (TOF-MS; available from LECO Corp., St. Joseph, Mich.). The chlorocyclohexane internal standard was included at 10 ppm per beverage to attempt to normalize the raw area counts of the other compounds of interest.

[4] = stabilization of citral to sunlight, off-notes by SPME GC/TOF-MS (Example 40A); format: physicochemical
Source text: The encapsulated citral products of Example 19 were studied by exposure to summer sun for 7 days as in the above example, but with the goal of monitoring thermal and photo oxidation products using two different concentrations of cyclodextrins. […] The citral complexes were studied at two different concentrations and were designed to deliver a constant citral level when used at 0.1 wt % or 0.2 wt % in acidic beverage base consisting of 10% sucrose and 0.5% citric acid. A 0.1 wt % citral in ethanol was used as a control. 500 ml of each sample was prepared and divided into six (6) four (4) oz samples with no allowed headspace and sealed. Analysis was preformed using SPME and a LECO Pegasus III GC/TOF-MS as previously reported; samples were analyzed in triplicate using a “Latin Square” sampling protocol.

Q: Which “log(P) value (class of guest)” value [1] does the source give for `COC(=O)[C@H](Cc1ccccc1)NC(=O)[C@@H](N)CC(=O)O` [aspartame] (H-Asp-Phe-OMe) here?
A: less than about 1 but greater than zero

Q: Which “log(P) value (class of guest)” value [1] does the source give for `CSC` [dimethyl sulfide] here?
A: less than about 1 but greater than zero

Q: With `CCc1occc(=O)c1O` [ethyl maltol] as the compound, how does the “log(P) value (class of guest)” value [1] read?
A: less than about 1 but greater than zero

Q: Which “log(P) value (class of guest)” value [1] does the source give for `CC1=C(O)C(=O)C(C)O1` (centres unmarked) [furaneol, 4-hydroxy-2,5-dimethyl-3(2H) furanone] here?
A: less than about 1 but greater than zero

Q: For `COc1cc(S(=O)(=O)[O-])c(C)cc1N=Nc1c(O)ccc2cc(S(=O)(=O)[O-])ccc12.[Na+].[Na+]` [red 40 color], which “color stability (red 40)” value [2] is on record?
A: degrades upon exposure to light

Q: Which “amount of off-notes formed vs control” value [3] does the source give for `OC[C@H]1O[C@@H]2O[C@H]3[C@H](O)[C@@H](O)[C@@H](O[C@H]4[C@H](O)[C@@H](O)[C@@H](O[C@H]5[C@H](O)[C@@H](O)[C@@H](O[C@H]6[C@H](O)[C@@H](O)[C@@H](O[C@H]7[C@H](O)[C@@H](O)[C@@H](O[C@H]1[C@H](O)[C@H]2O)O[C@@H]7CO)O[C@@H]6CO)O[C@@H]5CO)O[C@@H]4CO)O[C@@H]3CO` [α-cyclodextrin] here?
A: off-note formation is inhibited

Q: Which results are given for `OC[C@H]1O[C@@H]2O[C@H]3[C@H](O)[C@@H](O)[C@@H](O[C@H]4[C@H](O)[C@@H](O)[C@@H](O[C@H]5[C@H](O)[C@@H](O)[C@@H](O[C@H]6[C@H](O)[C@@H](O)[C@@H](O[C@H]7[C@H](O)[C@@H](O)[C@@H](O[C@H]8[C@H](O)[C@@H](O)[C@@H](O[C@H]1[C@H](O)[C@H]2O)O[C@@H]8CO)O[C@@H]7CO)O[C@@H]6CO)O[C@@H]5CO)O[C@@H]4CO)O[C@@H]3CO` [β-cyclodextrin]?
A: amount of citral in the solution vs control [3]: increased the amount of citral in the solution; amount of off-notes formed vs control [3]: off-note formation is inhibited; also recorded: decreased the amount of off-notes formed

Q: Which results are given for hydroxypropyl-β-cyclodextrin?
A: preventing flavor offnotes, compared with β-cyclodextrin [4]: less effective than β-cyclodextrin in preventing flavor offnotes; color stability (red 40) [2]: superior color stability; color stability (red 40) ([2]; listed as hydroxyl propyl β-cyclodextrin): best

Source: patent US20100160623A1, “CYCLODEXTRIN INCLUSION COMPLEXES AND METHODS OF PREPARING SAME” (CARGILL, INCORPORATED, priority 2006, published 2010)
